Data from ChEMBL document CHEMBL1123223, “New effective gonadotropin releasing hormone antagonists with minimal potency for histamine release in vitro” (J Med Chem, 1986).
Converted amounts (≈) assume the structure as drawn. One block for each compound: values may come before it.

Key:
Rattus norvegicus [1] = species: Rattus norvegicus; assay: Compound was tested in vitro for its ability to inhibit histamine release from rat mast cells.; assay type: functional; settings: read-out: ED50 (the source's name)
Rattus norvegicus [2] = species: Rattus norvegicus; assay: Dissociation constant was determined in rat pituitary cells.; assay type: cell-based; settings: pituitary gland cell
[3] = target: T1, Gonadotropin-releasing hormone receptor (Rattus norvegicus) (UniProt P30969); assay: Inhibition of GnRH-mediated LH secretion by cultured pituitary cells; assay type: functional, cell-based; settings: Pituitary gland cell
T1 sequence (whole entry): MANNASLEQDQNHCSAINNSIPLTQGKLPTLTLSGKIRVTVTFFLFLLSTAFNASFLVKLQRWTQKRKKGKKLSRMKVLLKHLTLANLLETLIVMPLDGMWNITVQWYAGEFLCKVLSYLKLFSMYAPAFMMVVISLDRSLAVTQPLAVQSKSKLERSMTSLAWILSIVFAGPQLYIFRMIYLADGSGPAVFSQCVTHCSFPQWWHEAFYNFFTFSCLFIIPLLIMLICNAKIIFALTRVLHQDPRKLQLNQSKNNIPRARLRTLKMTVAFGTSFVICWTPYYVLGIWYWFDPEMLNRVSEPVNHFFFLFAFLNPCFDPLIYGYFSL

Rattus norvegicus [4] = species: Rattus norvegicus; assay: GnRH antagonistic dose of compound for 9 rats ovulation out of total 20 using anti-ovulatory assay; assay type: functional
Rattus norvegicus [5] = species: Rattus norvegicus; assay: Compound was evaluated for time course of action on LH secretion in the castrated male rat at a time interval of 1 hr at 25 microg; assay type: functional
Rattus norvegicus [6] = species: Rattus norvegicus; assay: Compound was evaluated for time course of action on LH secretion in the castrated male rat at a time interval of 19 hr at 25 microg; assay type: functional
Rattus norvegicus [7] = species: Rattus norvegicus; assay: Compound was evaluated for time course of action on LH secretion in the castrated male rat at a time interval of 43 hr at 25 microg; assay type: functional
Rattus norvegicus [8] = species: Rattus norvegicus; assay: Compound was evaluated for time course of action on LH secretion in the castrated male rat at a time interval of 49 h at 125 microg; assay type: functional
Rattus norvegicus [9] = species: Rattus norvegicus; assay: Compound was evaluated for time course of action on LH secretion in the castrated male rat at a time interval of 49 hr at 25 microg; assay type: functional
Rattus norvegicus [10] = species: Rattus norvegicus; assay: Compound was evaluated for time course of action on LH secretion in the castrated male rat at a time interval of 67 hr at 25 microg; assay type: functional
Rattus norvegicus [11] = species: Rattus norvegicus; assay: Compound was evaluated for time course of action on LH secretion in the castrated male rat at a time interval of 73 hr at 25 microg; assay type: functional
Rattus norvegicus [12] = species: Rattus norvegicus; assay: Compound was evaluated for time course of action on LH secretion in the castrated male rat at a time interval of 0 hr at 25 microg; assay type: functional
Rattus norvegicus [13] = species: Rattus norvegicus; assay: Compound was evaluated for time course of action on LH secretion in the castrated male rat at a time interval of 1 hr at 125 microg; assay type: functional
Rattus norvegicus [14] = species: Rattus norvegicus; assay: Compound was evaluated for time course of action on LH secretion in the castrated male rat at a time interval of 43 hr at 125 microg; assay type: functional
Rattus norvegicus [15] = species: Rattus norvegicus; assay: Compound was evaluated for time course of action on LH secretion in the castrated male rat at a time interval of 67 hr at 125 microg; assay type: functional
Rattus norvegicus [16] = species: Rattus norvegicus; assay: Compound was evaluated for time course of action on LH secretion in the castrated male rat at a time interval of 0 hr at 125 microg; assay type: functional
Rattus norvegicus [17] = species: Rattus norvegicus; assay: Compound was evaluated for time course of action on LH secretion in the castrated male rat at a time interval of 19 hr at 125 microg; assay type: functional
Rattus norvegicus [18] = species: Rattus norvegicus; assay: Compound was evaluated for time course of action on LH secretion in the castrated male rat at a time interval of 73 hr at 125 microg; assay type: functional
Rattus norvegicus [19] = species: Rattus norvegicus; assay: GnRH antagonistic dose of compound for 8 rats ovulation out of total 10 using anti-ovulatory assay; assay type: functional
Rattus norvegicus [20] = species: Rattus norvegicus; assay: GnRH antagonistic dose of compound for 11 rats ovulation out of total 15 using anti-ovulatory assay; assay type: functional
Rattus norvegicus [21] = species: Rattus norvegicus; assay: GnRH antagonistic dose of compound for 10 rats ovulation out of total 10 using anti-ovulatory assay; assay type: functional
Rattus norvegicus [22] = species: Rattus norvegicus; assay: GnRH antagonistic dose of compound for 0 rats ovulation out of total 10 using anti-ovulatory assay in experiment 2; assay type: functional
Rattus norvegicus [23] = species: Rattus norvegicus; assay: GnRH antagonistic dose of compound for 1 rats ovulation out of total 10 using anti-ovulatory assay in experiment 1; assay type: functional

EC50 (Rattus norvegicus [1]): 0.17 µg/mL (≈ 0.118 µM)
SMILES: CC(=O)N[C@H](Cc1ccc2ccccc2c1)C(=O)N[C@H](Cc1ccc(F)cc1)C(=O)N[C@H](Cc1c[nH]c2ccccc12)C(=O)N[C@@H](CO)C(=O)N[C@@H](Cc1ccc(O)cc1)C(=O)N[C@H](CCCN=C(N)N)C(=O)N[C@@H](CC(C)C)C(=O)N[C@@H](CCCN=C(N)N)C(=O)N1CCC[C@H]1C(=O)NCC(=O)O

Relative potency [3]: 0.95 | EC50 (Rattus norvegicus [1]): 3.4 µg/mL (≈ 2.29 µM)
SMILES: CC(=O)N[C@H](Cc1ccc2ccccc2c1)C(=O)N[C@H](Cc1ccc(Cl)cc1)C(=O)N[C@H](Cc1cccnc1)C(=O)N[C@@H](CO)C(=O)N[C@@H](CCCN=C(N)N)C(=O)N[C@H](Cc1cn(C=O)c2ccccc12)C(=O)N[C@@H](CC(C)C)C(=O)N[C@@H](CCCN=C(N)N)C(=O)N1CCC[C@H]1C(=O)N[C@H](C)C(=O)O
Kd (Rattus norvegicus [2]): 0.48 nM | ED100 (Rattus norvegicus [4]): 0.5 µg/kg

SMILES: CC(=O)N1CCC[C@@H]1C(=O)N[C@H](Cc1ccc(F)cc1)C(=O)N[C@H](Cc1c[nH]c2ccccc12)C(=O)N[C@@H](CO)C(=O)N[C@@H](CCCN=C(N)N)C(=O)N[C@H](Cc1ccc2ccccc2c1)C(=O)N[C@@H](CC(C)C)C(=O)N[C@@H](CCCN=C(N)N)C(=O)N1CCC[C@H]1C(=O)NCC(N)=O
LH level (Rattus norvegicus [5]): 5.68 ng/mL | LH level (Rattus norvegicus [6]): 2.78 ng/mL | LH level (Rattus norvegicus [7]): 4.38 ng/mL | LH level (Rattus norvegicus [8]): 2.5 ng/mL | LH level (Rattus norvegicus [9]): 5.46 ng/mL | LH level (Rattus norvegicus [10]): 8.23 ng/mL | LH level (Rattus norvegicus [11]): 9.15 ng/mL | LH level (Rattus norvegicus [12]): 10.25 ng/mL | LH level (Rattus norvegicus [13]): 6.17 ng/mL | LH level (Rattus norvegicus [14]): 2.63 ng/mL | LH level (Rattus norvegicus [15]): 2.74 ng/mL | LH level (Rattus norvegicus [16]): 12.47 ng/mL | LH level (Rattus norvegicus [17]): 3 ng/mL | LH level (Rattus norvegicus [18]): 4.58 ng/mL

Relative potency [3]: 0.88 | EC50 (Rattus norvegicus [1]): 1.9 µg/mL (≈ 1.3 µM)
SMILES: CC(=O)N[C@H](Cc1ccc2ccccc2c1)C(=O)N[C@H](Cc1ccc(Cl)cc1)C(=O)N[C@H](Cc1cccnc1)C(=O)N[C@@H](CO)C(=O)N[C@@H](CCCN=C(N)N)C(=O)N[C@H](Cc1ccc2ccccc2c1)C(=O)N[C@@H](CC(C)C)C(=O)N[C@@H](CCCN=C(N)N)C(=O)N1CCC[C@@H]1C(=O)N[C@H](C)C(=O)O
Kd (Rattus norvegicus [2]): 5 nM | ED100 (Rattus norvegicus [19]): 1 µg/kg

EC50 (Rattus norvegicus [1]): 3.7 µg/mL (≈ 2.59 µM)
SMILES: CC(=O)N[C@H](Cc1ccc2ccccc2c1)C(=O)N[C@H](Cc1ccc(Cl)cc1)C(=O)N[C@H](Cc1cccnc1)C(=O)N[C@@H](CO)C(=O)N[C@@H](CCCN=C(N)N)C(=O)N[C@H](Cc1ccc(O)cc1)C(=O)N[C@@H](CC(C)C)C(=O)N[C@@H](CCCN=C(N)N)C(=O)N1CCC[C@H]1C(=O)N[C@H](C)C(N)=O
ED100 (Rattus norvegicus [20]): 0.5 µg/kg

EC50 (Rattus norvegicus [1]): 30.3 µg/mL (≈ 21.5 µM)
SMILES: COc1ccc(C(=O)CC[C@@H](NC(=O)[C@H](Cc2ccc(O)cc2)NC(=O)[C@H](CO)NC(=O)[C@@H](Cc2cccnc2)NC(=O)[C@@H](Cc2ccc(Cl)cc2)NC(=O)[C@H]2CCCN2C(C)=O)C(=O)N(C)[C@@H](CC(C)C)C(=O)N[C@@H](CCCN=C(N)N)C(=O)N2CCC[C@H]2C(=O)N[C@H](C)C(=O)O)cc1
ED100 (Rattus norvegicus [21]): 5 µg/kg

EC50 (Rattus norvegicus [1]): 4.6 µg/mL (≈ 3.07 µM)
SMILES: COc1ccc(C(=O)CC[C@@H](NC(=O)[C@H](CCCN=C(N)N)NC(=O)[C@H](CO)NC(=O)[C@@H](Cc2cccnc2)NC(=O)[C@@H](Cc2ccc(Cl)cc2)NC(=O)[C@@H](Cc2ccc3ccccc3c2)NC(C)=O)C(=O)N(C)[C@@H](CC(C)C)C(=O)N[C@@H](CCCN=C(N)N)C(=O)N2CCC[C@H]2C(=O)N[C@H](C)C(N)=O)cc1
ED100 (Rattus norvegicus [19]): 1 µg/kg

EC50 (Rattus norvegicus [1]): 3.2 µg/mL (≈ 2.17 µM)
SMILES: COc1ccc(C(=O)CC[C@@H](NC(=O)[C@H](CCCN=C(N)N)NC(=O)[C@H](CO)NC(=O)[C@@H](Cc2cccnc2)NC(=O)[C@@H](Cc2ccc(Cl)cc2)NC(=O)[C@@H](Cc2ccc3ccccc3c2)NC(C)=O)C(=O)N[C@@H](CC(C)C)C(=O)N[C@@H](CCCN=C(N)N)C(=O)N2CCC[C@H]2C(=O)NCC(=O)O)cc1
Kd (Rattus norvegicus [2]): 0.6 nM | ED100 (Rattus norvegicus [22]): 2.5 µg/kg | ED100 (Rattus norvegicus [23]): 1 µg/kg
